Test results: PubChem BioAssay AID248 (DTP/NCI, 2004)
Several values for one entry are separate records, joined by “and”; a condition that tells them apart may be missing. Equal entries are not always repeated. Toxic doses and inconclusive results are not listed. No stated cut-off is given here; in the data, active means T/C of 150% or more; inactive means T/C below 125%.

Tested on: L1210 leukemia ip in BDF1 mice, survival T/C
Test: NCI In Vivo Anticancer Drug Screen. Data for tumor model L1210 Leukemia (intraperitoneal) in B6D2F1 (BDF1) mice
Conditions: endpoint: mean survival time, higher = longer survival
Summary of the method: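 Value reflects the ratio of survival in compound-treated mice to survival in vehicle-treated controls, with both groups carrying the same transplanted tumor.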

[1] = dose: 50.0 mg/kg/injection, schedule: Q01DX001 (ip), vehicle: saline
[2] = dose: 100.0 mg/kg/injection, schedule: Q01DX001 (ip), vehicle: saline
[3] = dose: 100.0 mg/kg/injection, schedule: Q04DX003 (ip), vehicle: saline
[4] = dose: 200.0 mg/kg/injection, schedule: Q04DX003 (ip), vehicle: saline
[5] = dose: 400.0 mg/kg/injection, schedule: Q04DX003 (ip), vehicle: saline

Measured: T/C

CN(C)C1=C(Cl)C(=O)c2ccccc2C1=O
inactive: [1] 102 % of control | [2] 100 % of control

O=[N+]([O-])c1ccc2nc3c(nc2c1)-c1cccc2cccc-3c12
inactive: dose: 25.0 mg/kg/injection, schedule: Q01DX009 (ip), vehicle: saline with Tween-80 89 % of control | dose: 50.0 mg/kg/injection, schedule: Q01DX009 (ip), vehicle: saline with Tween-80 91 % of control | dose: 100.0 mg/kg/injection, schedule: Q01DX009 (ip), vehicle: saline with Tween-80 94 % of control | dose: 100.0 mg/kg/injection, schedule: Q04DX003 (ip), vehicle: saline with Tween-80 97 % of control | dose: 200.0 mg/kg/injection, schedule: Q04DX003 (ip), vehicle: saline with Tween-80 97 % of control | dose: 400.0 mg/kg/injection, schedule: Q04DX003 (ip), vehicle: saline with Tween-80 103 % of control

c1ccc2nc(CCC3CCCCN3)ccc2c1 (centres undefined)
inactive: dose: 333.0 mg/kg/injection, schedule: Q01DX Z (ip), vehicle: methylcellulose (MC) 101 % of control

Cn1cnc2cc(N=Cc3ccc(N(CCCl)CCCl)cc3Cl)ccc21
inactive: dose: 100.0 mg/kg/injection, schedule: Q04DX002 (ip), vehicle: Klucel (hydroxypropylcellulose) (HPC) 108 % of control | dose: 200.0 mg/kg/injection, schedule: Q04DX002 (ip), vehicle: Klucel (hydroxypropylcellulose) (HPC) 101 % of control | dose: 400.0 mg/kg/injection, schedule: Q04DX002 (ip), vehicle: Klucel (hydroxypropylcellulose) (HPC) 101 % of control

CC(C)OC(C)(C=O)OC(=O)Nc1cccc2ccccc12 (centres undefined)
inactive: dose: 100.0 mg/kg/injection, schedule: Q04DX002 (sc), vehicle: olive oil, sesame oil, peanut oil 100 % of control | dose: 200.0 mg/kg/injection, schedule: Q04DX002 (sc), vehicle: olive oil, sesame oil, peanut oil 95 % of control | dose: 400.0 mg/kg/injection, schedule: Q04DX002 (sc), vehicle: olive oil, sesame oil, peanut oil 103 % of control

COc1ccccc1OC
inactive: [3] 97 % of control | [4] 103 % of control | [5] 86 % of control

CC(=O)OCCNc1ccc([N+](=O)[O-])cc1[N+](=O)[O-]
inactive: dose: 100.0 mg/kg/injection, schedule: Q01DX009 (ip), vehicle: acetone 109 % of control | [3] 101 % of control | dose: 200.0 mg/kg/injection, schedule: Q01DX009 (ip), vehicle: acetone 97 % of control | [4] 103 % of control | dose: 400.0 mg/kg/injection, schedule: Q01DX009 (ip), vehicle: acetone 112 % of control | [5] 95 % of control

COc1cccc(NC(=O)Nc2cccc(C(F)(F)F)c2)c1
inactive: dose: 100.0 mg/kg/injection, schedule: Q01DX009 (ip), vehicle: Klucel (hydroxypropylcellulose) (HPC) 96 % of control | dose: 200.0 mg/kg/injection, schedule: Q01DX009 (ip), vehicle: Klucel (hydroxypropylcellulose) (HPC) 101 % of control | dose: 400.0 mg/kg/injection, schedule: Q01DX009 (ip), vehicle: Klucel (hydroxypropylcellulose) (HPC) 101 % of control

O=c1[nH]cc(CC(F)C(F)(F)F)c(=O)[nH]1 (centres undefined)
inactive: dose: 60.0 mg/kg/injection, schedule: Q01DX001 (ip), vehicle: DMSO 91 % of control | dose: 120.0 mg/kg/injection, schedule: Q01DX001 (ip), vehicle: DMSO 105 % of control

O=COCC1CC2C=CC1C2 (centres undefined)
inactive: dose: 222.0 mg/kg/injection, schedule: Q01DX Z (ip), vehicle: saline 98 % of control | dose: 333.0 mg/kg/injection, schedule: Q01DX Z (ip), vehicle: saline 102 % of control | dose: 500.0 mg/kg/injection, schedule: Q01DX Z (ip), vehicle: saline 97 % of control

Cc1ccc2[nH]c3cc4ccncc4cc3c2c1
inactive: dose: 100.0 mg/kg/injection, schedule: Q01DX001 (ip), vehicle: Klucel (hydroxypropylcellulose) (HPC) 89 % of control | dose: 200.0 mg/kg/injection, schedule: Q01DX001 (ip), vehicle: Klucel (hydroxypropylcellulose) (HPC) 94 % of control | dose: 400.0 mg/kg/injection, schedule: Q01DX001 (ip), vehicle: Klucel (hydroxypropylcellulose) (HPC) 93 % of control

CC(OCCC#N)C(C)OCCC#N (centres undefined)
inactive: dose: 44.0 mg/kg/injection, schedule: Q01DX001 (ip), vehicle: saline 93 % of control | dose: 45.0 mg/kg/injection, schedule: Q01DX001 (ip), vehicle: saline 102 % of control | [1] 98 % of control | dose: 67.0 mg/kg/injection, schedule: Q01DX001 (ip), vehicle: saline 96 % of control and 104 % of control | [2] 98 % of control and 101 % of control (2×) | dose: 150.0 mg/kg/injection, schedule: Q01DX001 (ip), vehicle: saline 101 % of control and 102 % of control | dose: 200.0 mg/kg/injection, schedule: Q01DX001 (ip), vehicle: saline 98 % of control | dose: 400.0 mg/kg/injection, schedule: Q01DX001 (ip), vehicle: saline 98 % of control

CC(=O)C1(O)CCC2C3CCC4=CC(=O)CCC4(C)C3CC(=O)C21C (centres undefined)
inactive: dose: 75.0 mg/kg/injection, schedule: Q01DX001 (ip), vehicle: other 95 % of control | dose: 150.0 mg/kg/injection, schedule: Q01DX001 (ip), vehicle: other 93 % of control | dose: 300.0 mg/kg/injection, schedule: Q01DX001 (ip), vehicle: other 95 % of control

O=C(Nc1ccc(C(=O)Nc2cc(S(=O)(=O)O)cc3cccc(S(=O)(=O)O)c23)cc1)Nc1ccc(C(=O)Nc2cc(S(=O)(=O)O)cc3cccc(S(=O)(=O)O)c23)cc1
inactive: dose: 37.5 mg/kg/injection, schedule: Q04DX003 (ip), vehicle: carboxymethylcellulose (CMC) 97 % of control | dose: 75.0 mg/kg/injection, schedule: Q01DX001 (ip), vehicle: carboxymethylcellulose (CMC) 93 % of control | dose: 75.0 mg/kg/injection, schedule: Q04DX003 (ip), vehicle: carboxymethylcellulose (CMC) 101 % of control | dose: 150.0 mg/kg/injection, schedule: Q01DX001 (ip), vehicle: carboxymethylcellulose (CMC) 105 % of control | dose: 150.0 mg/kg/injection, schedule: Q04DX003 (ip), vehicle: carboxymethylcellulose (CMC) 95 % of control

NC(=O)c1cc([N+](=O)[O-])ccc1N1CC[N+](CCCl)=N1
inactive: dose: 100.0 mg/kg/injection, schedule: Q01DX001 (ip), vehicle: saline with Tween-80 100 % of control | dose: 200.0 mg/kg/injection, schedule: Q01DX001 (ip), vehicle: saline with Tween-80 91 % of control | dose: 400.0 mg/kg/injection, schedule: Q01DX001 (ip), vehicle: saline with Tween-80 90 % of control
